# Test results as given in patent US8906909B2 (Curis, Inc., priority 2009, dated 2014).
# Tested on: HDACs (HeLa cell nuclear extracts)
# Assay: HDAC enzymatic activity, Biomol Color de Lys system
# Type: biochemical
# Experimental: (e) An In Vitro Assay which Determines the Ability of a Test Compound to Inhibit HDAC Enzymatic Activity.
# HDAC inhibitory activity was assessed using the Biomol Color de Lys system (AK-500, Biomol, Plymouth Meeting, Pa.). Briefly, HeLa cell nuclear extracts were used as a source of HDACs. Different concentrations of test compounds were serially diluted in dimethylsulphoxide (DMSO) and added to HeLa cell nuclear extracts in the presence of a colorimetric artificial substrate. Final assay condition contained 50 mM Tris/Cl, pH 8.0, 137 mM NaCl, 2.7 mM KCl and 1 mM MgCl2. Reactions were carried in room temperature (25° C.) for 1 hour before addition of developer for termination. Relative enzyme activity was measured in the WALLAC Victor II 1420 microplate reader as floorescence intensity (excitation: 350-380 nm; emission: 440-460 nm). Data were analyzed using GraphPad Prism (v4.0a) with a sigmoidal dose response curve fitting for IC50 calculation.
row,IC50,Structure (SMILES)
1,< 100 nM,O=C(/C=C/c1cccc(S(=O)(=O)Nc2cc3nc(-c4cccc5[nH]ncc45)nc(N4CCOCC4)c3s2)c1)NO [Compound 216]
2,< 100 nM,CNc1ccc(-c2nc(N3CCOCC3)c3sc(NS(=O)(=O)c4ccc(/C=C/C(=O)NO)cc4)cc3n2)cn1 [Compound 223]
3,< 100 nM,CC(=O)NCCN(Cc1cc2nc(-c3cccc4[nH]ncc34)nc(N3CCOCC3)c2s1)c1ncc(C(=O)NO)cn1 [Compound 96]
4,100 to 1000 nM,CS(=O)(=O)N1CCN(Cc2cc3nc(-c4cccc5[nH]ncc45)nc(NCCCCC(=O)NO)c3s2)CC1 [Compound 34]
5,< 100 nM,CS(=O)(=O)N1CCN(Cc2cc3nc(-c4cccc5[nH]ncc45)nc(NCCCCCC(=O)NO)c3s2)CC1 [Compound 35]
6,< 100 nM,CS(=O)(=O)N1CCN(Cc2cc3nc(-c4cccc5[nH]ncc45)nc(NCCCCCCC(=O)NO)c3s2)CC1 [Compound 36]
7,< 100 nM,CN(c1ncc(C(=O)NO)cn1)C(C)(C)c1cc2nc(-c3ccc(N)cc3)nc(N3CCOCC3)c2s1 [Compound 270]
8,< 100 nM,CN(Cc1cc2nc(-c3cccc4[nH]c(=O)sc34)nc(N3CCOCC3)c2s1)c1ncc(C(=O)NO)cn1 [Compound 317]
9,100 to 1000 nM,COc1ccc(-c2nc(N3CCOCC3)c3sc(Nc4ncc(C(=O)NO)cn4)cc3n2)cn1 [Compound 253]
10,< 100 nM,CN(Cc1cc2nc(-c3ccc4c(c3)NC(=O)CO4)nc(N3CCOCC3)c2s1)c1ncc(C(=O)NO)cn1 [Compound 183]
11,< 100 nM,O=C(NO)c1cnc(NCc2cc3cc(-c4cccc5[nH]ncc45)nc(N4CCOCC4)c3s2)nc1 [Compound 73]
12,< 100 nM,Nc1ccc(-c2nc(N3CCOCC3)c3sc(CN4CCN(c5ncc(C(=O)NO)cn5)CC4)cc3n2)cc1 [Compound 207]
13,100 to 1000 nM,CCCc1nc2cc(/C=C/C(=O)NO)ccc2n1CCNCc1cc2nc(-c3ccc(NC)nc3)nc(N3CCOCC3)c2s1 [Compound 323]
14,< 100 nM,COc1ncc(-c2nc(N3CCOCC3)c3sc(C(C)(C)N(C)c4ncc(C(=O)NO)cn4)cc3n2)cn1 [Compound 264]
15,< 100 nM,Nc1ccc(-c2nc(N3CCOCC3)c3sc(CN(CCO)c4ncc(C(=O)NO)cn4)cc3n2)cc1F [Compound 277]
16,< 100 nM,Nc1ccc(-c2nc(N3CCOCC3)c3sc(CN(CCO)c4ncc(C(=O)NO)cn4)cc3n2)cn1 [Compound 235]
17,> 10000 nM,O=C(NO)c1cc2nc(-c3cccc4[nH]ncc34)nc(N3CCOCC3)c2s1 [Compound 45]
18,100 to 1000 nM,CNc1ccc(-c2nc(N3CCOCC3)c3sc(CNCc4nc5cc(/C=C/C(=O)NO)ccc5n4C)cc3n2)cn1 [Compound 328]
19,100 to 1000 nM,Nc1ccc(-c2nc(N3CCOCC3)c3sc(CNCc4ccc(/C=C/C(=O)NO)cc4)cc3n2)cc1 [Compound 210]
20,< 100 nM,CC(C)(Nc1ncc(C(=O)NO)cn1)c1cc2nc(-c3cccc4[nH]ncc34)nc(N3CCOCC3)c2s1 [Compound 71]
21,100 to 1000 nM,CCCc1nc2cc(/C=C/C(=O)NO)ccc2n1CCN(C)Cc1cc2nc(-c3ccc(N)cc3)nc(N3CCOCC3)c2s1 [Compound 324]
22,100 to 1000 nM,O=C(NO)c1cnc(N2CCN(S(=O)(=O)c3cc4nc(-c5cccc6[nH]ncc56)nc(N5CCOCC5)c4s3)CC2)nc1 [Compound 51]

row,IC50,Structure (SMILES)
1,< 100 nM,Cc1ncc(-c2nc(N3CCOCC3)c3sc(CN(C)c4ncc(C(=O)NO)cn4)cc3n2)s1 [Compound 311]
2,< 100 nM,Nc1ccc(-c2nc(N3CCOCC3)c3sc(CNCc4ccc(C(=O)NO)cc4)cc3n2)cc1 [Compound 209]
3,< 100 nM,COCCN(CCOC)c1nc(-c2cccc3[nH]ncc23)nc2cc(CN(C)c3ncc(C(=O)NO)cn3)sc12 [Compound 163]
4,100 to 1000 nM,CN(C)CCN(Cc1cc2nc(-c3cccc4[nH]ncc34)nc(N3CCOCC3)c2s1)c1ncc(C(=O)NO)cn1 [Compound 95]
5,< 100 nM,Nc1ccc(-c2nc(N3CCOCC3)c3sc(CN(CCO)c4ncc(C(=O)NO)cn4)cc3n2)cc1 [Compound 274]
6,< 100 nM,CN(Cc1cc2nc(-c3ccc(N)cc3)nc(N3CCOCC3)c2s1)c1ccc(C(=O)NO)cc1 [Compound 206]
7,< 100 nM,NCCN(Cc1cc2nc(-c3cccc4[nH]ncc34)nc(N3CCOCC3)c2s1)c1ncc(C(=O)NO)cn1 [Compound 94]
8,< 100 nM,COCCNc1nc(-c2cccc3[nH]ncc23)nc2cc(CN(C)c3ncc(C(=O)NO)cn3)sc12 [Compound 160]
9,< 100 nM,CNc1ccc(-c2nc(N3CCOCC3)c3sc(NS(=O)(=O)c4cccc(/C=C/C(=O)NO)c4)cc3n2)cn1 [Compound 224]
10,< 100 nM,"CN(Cc1cc2nc(-c3cccc(C(N)=O)c3)nc(N3CCOCC3)c2s1)c1ncc(C(=O)NO)cn1 [Compound 142, 2-(((2-(3-carbamoylphenyl)-4-morpholinothieno[3,2-d]pyrimidin-6-yl)methyl)(methyl)amino)-N-hydroxypyrimidine-5-carboxamide]"
11,1000 to 10000 nM,Cn1cc(CNc2cc3nc(-c4cccc5[nH]ncc45)nc(N4CCOCC4)c3s2)c2cc(C(=O)NO)ccc21 [Compound 106]
12,100 to 1000 nM,CCCc1nc2cc(/C=C/C(=O)NO)ccc2n1CCNCc1cc2nc(-c3ccc(N)cc3)nc(N3CCOCC3)c2s1 [Compound 325]
13,< 100 nM,CN(Cc1cc2nc(-c3cnc(OCc4ccccc4)nc3)nc(N3CCOCC3)c2s1)c1ncc(C(=O)NO)cn1 [Compound 266]
14,100 to 1000 nM,CN(CC1CCN(c2ncc(C(=O)NO)cn2)CC1)c1cc2nc(-c3cccc4[nH]ncc34)nc(N3CCOCC3)c2s1 [Compound 49]
15,< 100 nM,COc1ccc(-c2nc(N3CCOCC3)c3sc(CN(CCO)c4ncc(C(=O)NO)cn4)cc3n2)cn1 [Compound 265]
16,100 to 1000 nM,Cn1c(CNCc2cc3nc(-c4ccc(N)cc4)nc(N4CCOCC4)c3s2)nc2cc(/C=C/C(=O)NO)ccc21 [Compound 326]
17,< 100 nM,CC1COCC(C)N1c1nc(-c2cccc3[nH]ncc23)nc2cc(CN(C)c3ncc(C(=O)NO)cn3)sc12 (centres unmarked) [Compound 66]
18,1000 to 10000 nM,O=C(/C=C/c1cc2nc(-c3cccc4[nH]ncc34)nc(N3CCOCC3)c2s1)NO [Compound 46]
19,< 100 nM,CCN(CC)c1nc(-c2cccc3[nH]ncc23)nc2cc(CN(C)c3ncc(C(=O)NO)cn3)sc12 [Compound 158]
20,< 100 nM,COc1ccc(-c2nc(N3CCOCC3)c3sc(NCCCCC(=O)NO)cc3n2)cn1 [Compound 230]
21,< 100 nM,CN(Cc1cc2nc(-c3cccc4[nH]c(=O)[nH]c34)nc(N3CCOCC3)c2s1)c1ncc(C(=O)NO)cn1 [Compound 314]
22,< 100 nM,CN(Cc1cc2nc(-c3cccc4[nH]ncc34)nc(N(CCO)CCO)c2s1)c1ncc(C(=O)NO)cn1 [Compound 162]

row,IC50,Structure (SMILES)
1,< 100 nM,CN(Cc1cc2nc(-c3ccc(O)nc3)nc(N3CCOCC3)c2s1)c1ncc(C(=O)NO)cn1 [Compound 254]
2,< 100 nM,CN(Cc1cc2nc(-c3ccc4c(c3)OCCN4)nc(N3CCOCC3)c2s1)c1ncc(C(=O)NO)cn1 [Compound 191]
3,< 100 nM,O=C(CCCCCNc1cc2nc(-c3cccc4[nH]ncc34)nc(N3CCOCC3)c2s1)NO [Compound 19]
4,< 100 nM,CNc1ccc(-c2nc(N3CCOCC3)c3sc(C(C)(C)N(C)c4ncc(C(=O)NO)cn4)cc3n2)cn1 [Compound 241]
5,< 100 nM,O=C(NO)c1cnc(N2CCC(CNc3cc4nc(-c5cccc6[nH]ncc56)nc(N5CCOCC5)c4s3)CC2)nc1 [Compound 48]
6,< 100 nM,CN(Cc1cc2nc(-c3ccc4c(c3)CCN4)nc(N3CCOCC3)c2s1)c1ncc(C(=O)NO)cn1 [Compound 193]
7,< 100 nM,CN(Cc1cc2nc(-c3cccc4[nH]ncc34)nc(N3CCOCC3)c2s1)c1ccc(C(=O)NO)cc1 [Compound 79]
8,< 100 nM,CN(Cc1cc2nc(-c3cccc4[nH]c(=S)[nH]c34)nc(N3CCOCC3)c2s1)c1ncc(C(=O)NO)cn1 [Compound 315]
9,< 100 nM,COc1ccccc1Nc1nc(-c2cccc3[nH]ncc23)nc2cc(CN(C)c3ncc(C(=O)NO)cn3)sc12 [Compound 167]
10,< 100 nM,CC(=O)c1cccc(-c2nc(N3CCOCC3)c3sc(CN(C)c4ncc(C(=O)NO)cn4)cc3n2)c1 [Compound 300]
11,100 to 1000 nM,Nc1ccc(-c2nc(N3CCOCC3)c3sc(S(=O)(=O)NCC4CCN(c5ncc(C(=O)NO)cn5)CC4)cc3n2)cc1 [Compound 309]
12,< 100 nM,O=C(CCCCNc1cc2nc(-c3cc(O)ccc3F)nc(N3CCOCC3)c2s1)NO [Compound 231]
13,< 100 nM,CCN(Cc1cc2nc(-c3ccc(N)cc3)nc(N3CCOCC3)c2s1)c1ncc(C(=O)NO)cn1 [Compound 215]
14,< 100 nM,COc1ccc(Nc2nc(-c3cccc4[nH]ncc34)nc3cc(CN(C)c4ncc(C(=O)NO)cn4)sc23)cc1 [Compound 165]
15,100 to 1000 nM,O=C(O)CN(Cc1cc2nc(-c3cccc4[nH]ncc34)nc(N3CCOCC3)c2s1)c1ncc(C(=O)NO)cn1 [Compound 88]
16,< 100 nM,COc1ncc(-c2nc(N3CCOCC3)c3sc(NS(=O)(=O)c4ccc(/C=C/C(=O)NO)cc4)cc3n2)cn1 [Compound 219]
17,< 100 nM,CN1CCN(c2nc(-c3cccc4[nH]ncc34)nc3cc(CN(C)c4ncc(C(=O)NO)cn4)sc23)CC1 [Compound 61]
18,< 100 nM,CN(Cc1cc2nc(-c3ccc4[nH]ccc4c3)nc(N3CCOCC3)c2s1)c1ncc(C(=O)NO)cn1 [Compound 192]
19,< 100 nM,O=C(CCCCCCNc1cc2nc(-c3cccc4[nH]ncc34)nc(N3CCOCC3)c2s1)NO [Compound 20]
20,< 100 nM,CN(Cc1cc2nc(-c3cccc4[nH]ncc34)nc(NCCO)c2s1)c1ncc(C(=O)NO)cn1 [Compound 161]
21,< 100 nM,CN(Cc1cc2nc(-c3ccc(OCc4ccccc4)nc3)nc(N3CCOCC3)c2s1)c1ncc(C(=O)NO)cn1 [Compound 260]
